Assay results from patent US12017992B2, “Compounds for modulating mitochondrial function” (Mayo Foundation for Medical Education and Research, priority 2015, dated 2024).

Assay: Comment on salt form (Table 3)
Type: physicochemical
Settings: TFA salt

Cc1cccc(O[C@@H]2CCC[C@H](C(C)CNCc3ccncc3)C2)c1 (stereo partly shown)
Comments (salt form): Highly hygroscopic
